# According to US12281304B2, “Compositions and methods for treating and preventing muscular disorders and dystrophies, steroid side effects, and inflammation” (Children's National Medical Center, priority 2018, dated 2025):
# Target: T1, Toll-like receptor 7 (Mus musculus, UniProt P58681)
# T1 construct: endogenous in cells; host or cells: RAW 264.7 murine macrophage cells
# T1 sequence (P58681 27-1050): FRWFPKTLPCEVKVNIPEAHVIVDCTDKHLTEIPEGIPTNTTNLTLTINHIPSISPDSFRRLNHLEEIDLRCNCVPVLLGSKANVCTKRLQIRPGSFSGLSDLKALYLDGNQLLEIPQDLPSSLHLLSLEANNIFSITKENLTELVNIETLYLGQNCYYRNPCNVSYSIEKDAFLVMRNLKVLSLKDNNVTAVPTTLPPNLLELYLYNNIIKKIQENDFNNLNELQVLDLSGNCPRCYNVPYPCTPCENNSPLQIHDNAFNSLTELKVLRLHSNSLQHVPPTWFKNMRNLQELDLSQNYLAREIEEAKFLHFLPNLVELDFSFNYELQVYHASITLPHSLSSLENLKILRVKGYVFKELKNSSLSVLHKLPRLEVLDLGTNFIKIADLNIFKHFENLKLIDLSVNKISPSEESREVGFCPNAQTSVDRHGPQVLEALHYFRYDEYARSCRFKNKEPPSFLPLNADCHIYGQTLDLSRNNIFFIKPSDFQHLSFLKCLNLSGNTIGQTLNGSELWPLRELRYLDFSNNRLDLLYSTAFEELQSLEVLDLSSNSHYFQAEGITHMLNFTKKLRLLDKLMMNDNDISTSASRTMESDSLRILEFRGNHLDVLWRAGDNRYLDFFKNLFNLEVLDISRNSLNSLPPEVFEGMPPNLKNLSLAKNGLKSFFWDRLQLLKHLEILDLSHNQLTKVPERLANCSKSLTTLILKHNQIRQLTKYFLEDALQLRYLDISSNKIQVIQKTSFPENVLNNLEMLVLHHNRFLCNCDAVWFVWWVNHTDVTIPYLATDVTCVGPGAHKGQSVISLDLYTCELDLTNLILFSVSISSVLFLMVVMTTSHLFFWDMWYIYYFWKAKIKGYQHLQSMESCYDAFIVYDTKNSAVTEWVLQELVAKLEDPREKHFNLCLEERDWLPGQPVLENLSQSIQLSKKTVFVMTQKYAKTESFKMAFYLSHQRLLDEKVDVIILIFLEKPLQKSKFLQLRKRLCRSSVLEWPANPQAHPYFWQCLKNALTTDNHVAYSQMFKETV
# Test: Secreted TNF-α (ALPHA-LISA) in RAW 264.7 macrophages treated with miRNAs (TLR7 activation)
# Type: cell-based, murine
# Details: RAW 264.7 cells, 5 ug RNA, 6, 24 and 48 h
# Protocol: FIG. 11A-11C depict how miR-146a and miR-142-3p bind to and activate the inflammatory Toll-like receptor 7. 11A) RAW 264.7 murine macrophage cells were treated the indicated treatments for 6, 24 and 48 h: 1) negative CTRL (−)=no treatment; 2) Gardiquimod (3 ug/mL)=+control for TLR7 activation; 3) miR-146a (5 ug) sequence: […] (SEQ ID NO:70), 4) miR-142-3p (5 ug) […] (SEQ ID NO:71); 5) miR-146amut (5 ug, sequence: […] (SEQ ID NO:72)); 6) miR-142-3pmut (5 ug, sequence: […] (SEQ ID NO:73)). After the indicated timepoints, media was collected and an ALPHA-LISA was performed to measure the amount of secreted TNF-α. […] B) RAW 264.7 murine macrophage cells were treated with gardiquimod or the indicated microRNAs for 48 h, where peak activation was observed. Secreted TNF-α was assessed as in A) using an ALPHA-LISA. C) HEK 293 cells were transfected with a plasmid encoding TLR7-YFP (green) and either a Cy5-miR-146a or Cy5-miR-142-3p (red). 48 h post-transfection cells were fixed and confocal microscopy was performed using an Olympus FV-1000 at 100× magnification.
row,Molecule,secretion of TNF-α (TLR7 activation)
1,"miR-142-3p: microRNA, sequence uguaguguuuccuacuuuaugga (SEQ ID NO:71) (UGUAGUGUUUCCUACUUUAUGGA; listed as RNA, chemistry not given here; listed as Homo sapiens)",activate secretion of TNF-α
2,"miR-142-3pmut: uridine-deficient mutant microRNA, sequence agaagagaaaccaacaaaaugga (SEQ ID NO:73) (AGAAGAGAAACCAACAAAAUGGA; listed as RNA, chemistry not given here; listed as Homo sapiens)",prevents activation
3,"miR-146amut: uridine-deficient mutant microRNA, sequence agagaacagaaaaccacgggaa (SEQ ID NO:72) (AGAGAACAGAAAACCACGGGAA; listed as DNA, chemistry not given here; listed as Homo sapiens)",prevents activation

# Target: T2, TLR7 (Mus musculus, UniProt P58681)
# T2 construct: endogenous in cells; host or cells: RAW 264.7 murine macrophage cells
# T2 sequence (P58681 27-1050): T1 sequence (P58681 27-1050)
# Test: Competition of TLR7 activation by uridine-deficient mutant miRNA in RAW 264.7 cells (secreted TNF-α)
# Type: cell-based, murine
# Details: constant dose of parent miRNA with increasing doses of mutant, 48 hours
# Protocol: A) HEK 293 cells were transfected with a plasmid encoding TLR7-YFP (green) and either a Cy5-miR-146a mutant microRNA or Cy5-miR-142-3p mutant microRNA (red) […] post-transfection cells were fixed and confocal microscopy was performed using an Olympus FV-1000 at 100× magnification. […] B) RAW 264.7 murine macrophage cells were treated with a constant dose of miR-146a with increasing doses of a uridine-deficient miR-146a mutant. 48 hours later TLR7 activation was assessed via secreted TNF-α. […] C) RAW 264.7 murine macrophage cells were treated with a constant dose of […] with increasing doses of a uridine-deficient miR-142-3pmutant. 48 hours later TLR7 activation was assessed via secreted TNF-α.
row,Molecule,competition of TLR7 activation by the parent miRNA
1,"miR-142-3pmut: uridine-deficient mutant microRNA, sequence agaagagaaaccaacaaaaugga (SEQ ID NO:73) (AGAAGAGAAACCAACAAAAUGGA; listed as RNA, chemistry not given here; listed as Homo sapiens)",can compete away TLR7 activation
2,"miR-146amut: uridine-deficient mutant microRNA, sequence agagaacagaaaaccacgggaa (SEQ ID NO:72) (AGAGAACAGAAAACCACGGGAA; listed as DNA, chemistry not given here; listed as Homo sapiens)",can compete away the activation of TLR7 by miR-146a

# System: miRNA sequences
# Test: not given
# Details: known mechanism listed in Table 6; compounds will be tested; cited from earlier work
row,Molecule,Activity
1,O=C(Nc1cccc(Br)c1)c1cccc(S(=O)(=O)N2CCCCCC2)c1 [AK-7],NAD-dependent deacetylase sirtuin 2 (SIRT2) inhibitor
2,COc1cc2nc(N3CCCN(C)CC3)nc(NC3CCN(Cc4ccccc4)CC3)c2cc1OC [BIX-01294],G9a histone methyltransferase/ GLP histone methyltransferase (G9a/GLP) inhibitor
3,COC(=O)CNC(=O)C(=O)OC [DMOG],Prolyl hydroxylase domain- containing protein (PHD/JMJD2A) inhibitor
4,CN(C)NC(=O)CCC(=O)O [Daminozide],KDM2/KDM7 JmjC subfamily of histone demethylase inhibitor
5,O=C(/C=C/c1cccnc1)NCCCCC1CCN(C(=O)c2ccccc2)CC1 [FK-866 HCI],Nicotinamide phosphoribosyl- transferase (Nampt) inhibitor
6,O=C(O)CCNc1cc(N2CCc3ccccc3CC2)nc(-c2ccccn2)n1 [GSK-J1 (cell impermeable)],Jumonji H3K27 histone demethylase (JMJD3/UTX) inhibitor
7,Cc1ccc(-n2sc3ccccc3c2=O)cc1 [PBIT],Jumanji AT-rich interactive domain 1 family of lysine demethylases (JARID1) inhibitor
8,N[C@@H]1C[C@H]1c1ccccc1 [Tranyl- cypromine hemisulfate],Lysine-specific demethylase 1 (LSD1/BHC110) inhibitor
